{
  "source": "patent US20090264388A1",
  "about": "“Compounds and Methods of Treating Disorders Associated With Activation of Metachromatic Cells” (Valorisation Recherche HSCM, Limited Partnership, priority 2006, published 2009)",
  "key": {"RBL-2H3 cells [1]": {"tested_on": "RBL-2H3 cells", "assay": "Antigen (DNP-BSA)-induced β-hexosaminidase release (degranulation) in IgE-sensitized RBL-2H3 cells", "format": "cell-based, rat", "settings": "for blockade of IgE-dependent activation and degranulation of metachromatic cells, agent alone: antigen-induced maximal degranulation (FIG. 21-28); for effect on antigenic degranulation / β-hexosaminidase release: DNP-BSA 5 ng/ml and 40 ng/ml, antagonist concentration not stated", "from_the_text": "The rat basophilic cell line RBL-2H3 is an art recognized model for studying the activation of metachromatic cells through FcεRI (Oliver et al., “Signal transduction and cellular response in RBL-2H3 mast cells,” Prog. Allergy 42:185-245, 1988).\n(§1) The below experiments used the rat basophilic cells RBL-2H3 commercially available from the American Type Culture Collection (ATCC; Manassas, Va.) under accession number CRL-2256. RBL-2H3 cells were passively sensitized with mouse IgE anti-dinitrophenyl conjugated to bovine serum albumin (DNP-BSA) monoclonal antibody for 22 hours, and then stimulated with DNP-BSA (antigen) to induce cell degranulation (FIG. 1)."}, "RBL-2H3 cells [2]": {"tested_on": "RBL-2H3 cells", "assay": "Calcium ionophore A23187-induced β-hexosaminidase release in RBL-2H3 cells", "format": "cell-based, rat", "procedure": "RBL-2H3 cells were stimulated with the calcium ionophore A23187 (SigmaAldrich #C7522) in a concentration-dependent manner to induce metachromatic cell degranulation FIG. 10). […] The maximal inhibition is obtained at the concentration of 10 μM of L-703,606 (FIG. 11)."}, "neurokinin-1 receptor [3]": {"molecular_target": "neurokinin-1 receptor (Homo sapiens, UniProt P25103)", "sequence (P25103 whole entry)": "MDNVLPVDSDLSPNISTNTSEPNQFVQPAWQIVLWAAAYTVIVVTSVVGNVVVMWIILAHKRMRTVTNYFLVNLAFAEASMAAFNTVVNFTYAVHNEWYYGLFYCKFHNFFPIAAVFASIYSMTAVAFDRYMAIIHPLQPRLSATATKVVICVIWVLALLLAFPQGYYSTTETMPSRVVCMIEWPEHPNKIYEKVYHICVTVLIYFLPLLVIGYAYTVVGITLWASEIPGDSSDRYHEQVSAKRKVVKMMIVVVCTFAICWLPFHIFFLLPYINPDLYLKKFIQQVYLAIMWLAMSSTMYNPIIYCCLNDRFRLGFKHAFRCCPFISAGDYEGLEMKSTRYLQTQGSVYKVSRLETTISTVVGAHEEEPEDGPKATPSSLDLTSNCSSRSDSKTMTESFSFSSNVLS", "settings": "cited from earlier work"}, "NK-1 receptors": {"molecular_target": "T1, NK-1 receptors (Homo sapiens, UniProt P25103)", "T1 construct": "expressed in transfected cells; host or cells: CHO cells", "T1 sequence (P25103 whole entry)": "as above", "settings": "CHO cells expressing NK-1 receptors, cited from earlier work"}, "RBL-2H3 cells [4]": {"tested_on": "RBL-2H3 cells", "assay": "Intracellular calcium changes (Fluo-3 AM, epifluorescence microscopy) in RBL-2H3 cells", "format": "cell-based, rat", "settings": "Fluo-3 AM loaded cells (FIG. 12)"}, "RBL-2H3 cells [5]": {"tested_on": "RBL-2H3 cells", "assay": "Cell viability by trypan blue exclusion test in RBL-2H3 cells", "format": "cell-based, rat", "settings": "IgE-sensitized RBL-2H3 cells stimulated with DNP-BSA (FIG. 3)", "procedure": "as §1, with “1). To address the issue of an autocrine tachykinergic regulation of metachromatic cell degranulation in response to antigenic activation, IgE-sensitized RBL-2H3 cells were pre-treated with a selective NK-1 receptor antagonist prior to antigen stimulation.” for “1).”"}, "RBL-2H3 cells [6]": {"tested_on": "RBL-2H3 cells", "assay": "Histamine immunoreactivity (intracellular histamine pools) in IgE-sensitized RBL-2H3 cells stimulated with DNP-BSA", "format": "cell-based, rat", "settings": "pretreatment 10 μM; DNP-BSA 40 ng/ml", "from_the_text": "Data analysis using the macro built under the Image-Pro Plus platform enabled the representation of the frequency distribution of the maximal intensity for histamine immunoreactivity into RBL-2H3 cells. We arbitrarily divided basophils into six subgroups according to the range of maximal fluorescence intensity detected into the cells, e.g., 300 to 499 IAU (intensity arbitrary unit) or 900-1100 IAU. […] Therefore, frequency distribution analyses confirmed the β-hexosaminidase data by showing that blocking NK-1 receptors inhibits FcεRI clustering-induced metachromatic cell degranulation."}, "neurokinin-1 receptor [7]": {"molecular_target": "T2, neurokinin-1 receptor (Rattus norvegicus, UniProt P14600)", "T2 construct": "from tissue; host or cells: rat brain", "T2 sequence (P14600 whole entry)": "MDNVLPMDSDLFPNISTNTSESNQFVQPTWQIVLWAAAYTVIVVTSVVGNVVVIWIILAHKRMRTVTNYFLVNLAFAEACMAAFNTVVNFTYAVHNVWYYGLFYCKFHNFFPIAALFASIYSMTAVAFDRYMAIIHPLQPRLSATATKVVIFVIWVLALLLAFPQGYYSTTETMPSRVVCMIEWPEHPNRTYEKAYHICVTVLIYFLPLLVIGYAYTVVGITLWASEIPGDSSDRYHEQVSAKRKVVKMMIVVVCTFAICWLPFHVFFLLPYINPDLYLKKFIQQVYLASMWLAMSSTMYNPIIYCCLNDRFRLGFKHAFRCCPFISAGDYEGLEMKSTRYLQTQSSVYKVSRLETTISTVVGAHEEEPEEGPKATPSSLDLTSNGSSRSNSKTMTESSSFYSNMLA", "settings": "rat brain; cited from earlier work"}, "neurokinin-1 receptor [8]": {"molecular_target": "T3, neurokinin-1 receptor (Cavia porcellus, UniProt P30547)", "T3 construct": "pA2: 7.16 (guinea pig ileum); from tissue; host or cells: guinea pig ileum", "T3 sequence (P30547 whole entry)": "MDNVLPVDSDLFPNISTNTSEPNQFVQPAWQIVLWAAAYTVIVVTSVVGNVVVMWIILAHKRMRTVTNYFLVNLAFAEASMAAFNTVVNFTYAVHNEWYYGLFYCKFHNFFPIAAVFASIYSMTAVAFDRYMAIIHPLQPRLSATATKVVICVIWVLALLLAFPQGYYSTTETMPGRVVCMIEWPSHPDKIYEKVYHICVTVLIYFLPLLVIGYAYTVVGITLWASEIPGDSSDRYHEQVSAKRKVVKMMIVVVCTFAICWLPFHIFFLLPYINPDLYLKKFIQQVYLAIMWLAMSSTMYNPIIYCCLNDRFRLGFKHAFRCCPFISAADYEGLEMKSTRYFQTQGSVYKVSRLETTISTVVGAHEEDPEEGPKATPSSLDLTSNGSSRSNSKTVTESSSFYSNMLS", "settings": "guinea pig ileum; cited from earlier work"}, "[9]": {"settings": "antagonist 10 μM, DNP-BSA 5 ng/ml"}, "[10]": {"settings": "antagonist 10 μM, DNP-BSA 40 ng/ml"}},
  "note": "Entries after “also recorded” stand apart in the source; their conditions may differ. Structures can show the parent of a compound that is named as a salt. Where two headings read alike, the source gives them in different places.",
  "data": [
    {"molecule": "COc1ccc(-c2cc3nccn3c(Nc3ncccc3C(N)=O)n2)cc1OC", "note": "[BAY 61-3606]", "values": [
      {"measurement": "blockade of IgE-dependent activation and degranulation of metachromatic cells, agent alone", "setting": "RBL-2H3 cells [1]", "value": "potent blocker"}
    ]},
    {"molecule": "CCCCCCCCc1ccc(CCC(N)(CO)CO)cc1.Cl", "note": "[FTY720]", "values": [
      {"measurement": "blockade of IgE-dependent activation and degranulation of metachromatic cells, agent alone", "setting": "RBL-2H3 cells [1]", "value": "potent blocker"}
    ]},
    {"molecule": "Ic1ccccc1CNC1C2CCN(CC2)C1C(c1ccccc1)c1ccccc1.O=C(O)C(=O)O", "note": "[L-703,606, cis-2-(Diphenylmethel)-N-([2-iodophenyl]methyl)-1-azabicyclo (2.2.2) octan-3-amine]", "values": [
      {"measurement": "effect on antigen-induced maximal degranulation", "setting": "RBL-2H3 cells [1]; L-703,606 5 μM alone, antigen 40 ng/ml", "value": "weak effect"},
      {"measurement": "effect on inhibition by Tacrolimus of antigen-induced maximal cell degranulation", "setting": "RBL-2H3 cells [1]; L-703,606 10 μM, Tacrolimus 0.01 μM", "value": "potentiates"},
      {"measurement": "effect on inhibition by cyclosporin A of antigen-induced maximal cell degranulation", "setting": "RBL-2H3 cells [1]; L-703,606 10 μM, cyclosporin A 0.1 μM", "value": "potentiates"},
      {"measurement": "effect on inhibition by FTY720 of antigen-induced maximal cell degranulation", "setting": "RBL-2H3 cells [1]; L-703,606 1, 5 and 10 μM, FTY720 5 μM", "value": "potentiates"},
      {"measurement": "effect on inhibition by BAY 61-3606 of antigen-induced maximal cell degranulation", "setting": "RBL-2H3 cells [1]; L-703,606 5 and 10 μM, BAY 61-3606 100 and 250 nM", "value": "potentiates"},
      {"measurement": "effect on inhibition by LY-294,002 of antigen-induced maximal cell degranulation", "setting": "RBL-2H3 cells [1]; L-703,606 5 and 10 μM, LY-294,002 1 and 10 μM", "value": "potentiates"},
      {"measurement": "effect on inhibition by PD98059 of antigen-induced maximal cell degranulation", "setting": "RBL-2H3 cells [1]; L-703,606 5 and 10 μM, PD98059 5, 10 and 25 μM", "value": "potentiates"},
      {"measurement": "effect on inhibition by PP1 of antigen-induced maximal cell degranulation", "setting": "RBL-2H3 cells [1]; L-703,606 5 and 10 μM, PP1 1 and 5 μM", "value": "potentiates"},
      {"measurement": "effect on inhibition by SB202190 of antigen-induced maximal cell degranulation", "setting": "RBL-2H3 cells [1]; L-703,606 5 and 10 μM, SB202190 10 and 25 μM", "value": "potentiates"},
      {"measurement": "effect on antigen-induced 50% of cell degranulation", "setting": "RBL-2H3 cells [1]; [9]", "value": "completely abolished"},
      {"measurement": "reduction of maximal antigenic degranulation response", "setting": "RBL-2H3 cells [1]; [10]", "value": "~50", "unit": "%"},
      {"measurement": "inhibition of antigen-induced β-hexosaminidase release", "setting": "RBL-2H3 cells [1]; antagonist 1 to 10 μM, DNP-BSA 5 ng/ml or 40 ng/ml", "value": "concentration-dependent inhibition"},
      {"measurement": "effect on basal release of β-hexosaminidase", "setting": "RBL-2H3 cells [1]; no antigen, data not shown", "value": "did not change"},
      {"measurement": "most efficient inhibitory concentration for β-hexosaminidase release", "setting": "RBL-2H3 cells [1]; range tested 1 to 10 μM", "value": 10, "unit": "µM"},
      {"measurement": "concentration giving maximal inhibition of calcium ionophore-induced degranulation", "setting": "RBL-2H3 cells [2]; calcium ionophore A23187", "value": 10, "unit": "µM"},
      {"measurement": "inhibition of calcium ionophore-induced activation and degranulation", "setting": "RBL-2H3 cells [2]; calcium ionophore A23187 (FIG. 11)", "value": "inhibit, in a concentration-dependent manner"},
      {"measurement": "Kd", "setting": "neurokinin-1 receptor [3]; 35% sites", "value": 1.5, "unit": "nM"},
      {"measurement": "Kd", "setting": "neurokinin-1 receptor [3]; 65% sites", "value": 0.04, "unit": "nM"},
      {"measurement": "IC50", "setting": "NK-1 receptors", "value": 2, "unit": "nM"},
      {"measurement": "effect on calcium ionophore-induced calcium signals", "setting": "RBL-2H3 cells [4]", "value": "unlikely to be attributable to inhibition of calcium ionophore-induced extracellular calcium signals"},
      {"measurement": "cell viability (trypan blue exclusion)", "setting": "RBL-2H3 cells [5]", "value": "did not alter cell viability"},
      {"measurement": "cell viability (trypan blue exclusion)", "setting": "RBL-2H3 cells [5]; listed as L-703,606 oxalate salt", "value": "not attributable to cell death"},
      {"measurement": "depletion of histamine intracellular pools", "setting": "RBL-2H3 cells [6]", "value": "mostly abolished"}
    ]},
    {"molecule": "FC(F)(F)c1cc(CO[C@@H]2CCCN[C@@H]2c2ccccc2)cc(C(F)(F)F)c1", "note": "[L-733,060, ((2S,3S)-3-[[3,5-bis (Trifluoromethyl)phenyl]methoxy]-2-phenylpiperidine hydrochloride]", "values": [
      {"measurement": "effect on antigen-induced 50% of cell degranulation", "setting": "RBL-2H3 cells [1]; [9]", "value": "completely abolished"},
      {"measurement": "reduction of maximal antigenic degranulation response", "setting": "RBL-2H3 cells [1]; [10]", "value": "~55", "unit": "%"},
      {"measurement": "IC50", "setting": "NK-1 receptors; read-out: IC50", "value": 1, "unit": "nM"}
    ]},
    {"molecule": "Cl.O=c1cc(N2CCOCC2)oc2c(-c3ccccc3)cccc12", "note": "[LY-294,002]", "values": [
      {"measurement": "blockade of IgE-dependent activation and degranulation of metachromatic cells, agent alone", "setting": "RBL-2H3 cells [1]", "value": "potent blocker"}
    ]},
    {"molecule": "COc1cc(C(=O)N2CC[C@](CCN3CCC(C(N)=O)(c4ccccc4)CC3)(c3ccc(Cl)c(Cl)c3)C2)cc(OC)c1OC", "note": "[MDL 105,212]", "values": [
      {"measurement": "effect on antigenic degranulation / β-hexosaminidase release", "setting": "RBL-2H3 cells [1]", "value": "lack of inhibition"},
      {"measurement": "effect on cell degranulation induced by 40 ng/ml DNP-BSA", "setting": "RBL-2H3 cells [1]; antagonist 1 μM (but not 10 μM), DNP-BSA 40 ng/ml", "value": "significantly increased"},
      {"measurement": "effect on antigen concentration leading to 50% of maximal degranulation", "setting": "RBL-2H3 cells [1]; antagonist at both 1 μM and 10 μM, DNP-BSA 5 ng/ml", "value": "had no effect"}
    ]},
    {"molecule": "COc1cccc(-c2cc(=O)c3ccccc3o2)c1N", "note": "[PD98059]", "values": [
      {"measurement": "blockade of IgE-dependent activation and degranulation of metachromatic cells, agent alone", "setting": "RBL-2H3 cells [1]", "value": "potent blocker"}
    ]},
    {"molecule": "COc1ccccc1CC(=N)N1C[C@@H]2C(=O)CCC(c3ccccc3)(c3ccccc3)[C@@H]2C1", "note": "[RP 67580, (3aR,7aR)-Octahydro-2-[1-imino-2-(2-methoxyphenyl)ethyl]-7,7-diphenyl-4H-isoindol]", "values": [
      {"measurement": "IC50", "setting": "neurokinin-1 receptor [7]", "value": 10, "unit": "nM"},
      {"measurement": "decrease of degranulation induced by 5 ng/ml DNP-BSA", "setting": "RBL-2H3 cells [1]; [9]", "value": "~50", "unit": "%"},
      {"measurement": "effect on maximal antigenic degranulation", "setting": "RBL-2H3 cells [1]; [10]", "value": "no significant effect"},
      {"measurement": "pA2", "setting": "neurokinin-1 receptor [8]", "value": 7.16}
    ]},
    {"molecule": "Oc1ccc(-c2nc(-c3ccncc3)c(-c3ccc(F)cc3)[nH]2)cc1", "note": "[SB202190]", "values": [
      {"measurement": "blockade of IgE-dependent activation and degranulation of metachromatic cells, agent alone", "setting": "RBL-2H3 cells [1]", "value": "potent blocker"}
    ]},
    {"molecule": "C=CC[C@@H]1/C=C(\\C)C[C@H](C)C[C@H](OC)[C@H]2O[C@@](O)(C(=O)C(=O)N3CCCC[C@H]3C(=O)O[C@H](/C(C)=C/[C@@H]3CC[C@@H](O)[C@H](OC)C3)[C@H](C)[C@@H](O)CC1=O)[C@H](C)C[C@@H]2OC", "note": "[Tacrolimus]", "values": [
      {"measurement": "blockade of IgE-dependent activation and degranulation of metachromatic cells, agent alone", "setting": "RBL-2H3 cells [1]", "value": "potent blocker"}
    ]},
    {"molecule": "C[C@@H]1C[C@H]2[C@@H]3CCC4=CC(=O)C=C[C@]4(C)[C@@]3(F)[C@@H](O)C[C@]2(C)[C@@]1(O)C(=O)CO", "note": "[dexamethasone]", "values": [
      {"measurement": "reduction of maximal degranulation", "setting": "RBL-2H3 cells [1]; dexamethasone 10^−8 M alone, antigen 40 ng/ml", "value": 50, "unit": "%"}
    ]},
    {"molecule": "[D-Arg^1, D-Phe^5, D- Trp^7,9, Leu^11] substance P [Antagonist D]", "values": [
      {"measurement": "effect on antigenic degranulation / β-hexosaminidase release", "setting": "RBL-2H3 cells [1]", "value": "did not alter; also recorded: lack of inhibition"},
      {"measurement": "Affinity (selectivity in words)", "setting": "neurokinin-1 receptor [3]", "value": "Non-selective"}
    ]}
  ]
}
